Assay results as given in ChEMBL document CHEMBL3507680, “University of Dundee, Gates Library screen for HepG2 cell viability”.

Test: Human HepG2 cell viability assay in 384 well format
Format: toxicity, cell-based
Set-up: dose 125 nL, time 70.5 hour; concentration not given beside the values
Settings: HepG2 cells, read-out: Inhibition

Compound | cytotoxicity at 70.5 h [%]
Cc1cc(Cl)ccc1-n1ncc(C(=O)NCC2COC(C)(C)O2)c1N (stereo unspecified) | 23.9
O=S(=O)(Cc1ccc(F)cc1)N1CCN(CC(O)C2CC2)CC1 (stereo unspecified) | -1.75
CCOc1c(F)cccc1C(=O)N(C)CCn1cccn1 | 7.19
CCc1[nH]ncc1C(=O)N1CCCC(n2nc(C)cc2C)C1 (stereo unspecified) | -10.3
CC1CCN(C(=O)CN(Cc2ccco2)C2CC2)CC1 | -9.01
O=S(=O)(c1ccc(F)c(F)c1)N1CCCC(c2nccs2)C1 (stereo unspecified) | 1.6
COc1ccc(Cl)cc1C(=O)N1C[C@@H](NC(=O)N(C)C)[C@H](C(C)C)C1 | -10.5
OC1CCN(C2CCN(Cc3cnc(-c4cccs4)nc3)CC2)CC1 | 12.5
CCn1cc(CN2CCC(c3ncc(Cl)cc3S(C)(=O)=O)CC2)c(C)n1 | 0.165
CNC(=O)c1cc(C)n(-c2cccc(OC)c2)c1C | 11
COc1cc(CNCCNC(=O)c2ccc(O)cc2)ccc1SC | 55.5
CCN(CC)C(=O)c1nc2c(s1)CCN(C(=O)CCC(=O)OC)CC2 | 3.92
Cn1cc(C(=O)N2CCN(c3ncccn3)CC2)ccc1=O | -2.44
N#Cc1ccc(S(=O)(=O)NC(=O)c2csc(-c3ccco3)n2)cc1 | -2.89
C[C@@H]1CN(Cc2cc3ccccc3n2C)CC[C@@]1(O)C1CC1 | -3.91
CN(C)S(=O)(=O)c1ccc(-c2nc(C#N)c(NC3CC3)o2)o1 | -4.74
O=C(NCc1ccccc1)NCC1CCN(Cc2ccsc2)CC1 | -7.87
CN(C)C(=O)N1CCN(C(=O)c2cccc(Cl)c2)CC2(CNC(=O)C2)C1 (stereo unspecified) | -4.76
CCC(CC)CN1CCCn2nc(CNC(=O)COC)cc2C1 | -10.4

Compound | cytotoxicity at 70.5 h [%]
O=C(NCc1nn(-c2ccccc2)c2c1CCC2)N1CCCC(O)C1 (stereo unspecified) | -12.1
CCOC(=O)Cn1ccc2cc(NC(=O)N3CCSCC3)ccc21 | 1.82
Cc1nn(C)cc1C1CC(=O)Nc2c1cnn2C (stereo unspecified) | -5.3
Cc1nc(C)c(-c2nnc(SCC(=O)O)n2C(C)c2ccccc2)o1 (stereo unspecified) | -2.71
CN(Cc1cc(C2CC2)[nH]n1)Cc1cc2ccc(F)cc2[nH]c1=O | -12.6
Cc1nc(N)ncc1C(=O)N1CCCC(CCc2ccc(F)cc2)C1 (stereo unspecified) | -18.8
CNC(=O)c1cc(C)ccc1NCc1cn2cc(C)ccc2n1 | -2.87
Cc1cc(C(=O)N2CCCC(n3ccnc3)C2)c(C)n1C1CC1 (stereo unspecified) | 1.06
Fc1cnc(N2CCc3nnc(COc4ccccn4)n3CC2)nc1 | -3.38
Cc1ccc(CN(c2cc(C)nc3nc(C(F)(F)F)nn23)C2CC2)cc1 | 0.825
Cc1ncc(C(=O)N2CCCC(C(=O)CCc3ccccc3)C2)s1 (stereo unspecified) | -13.8
COc1cccc(-c2noc(-c3ccc(NCCCN)nc3)n2)c1OC | 2.21
c1cncc(C2=NOC3(CCN(Cc4c[nH]c5ccccc45)CC3)C2)c1 | 5.06
Cc1ccc2c(n1)N(CCN(C)C)CCN(C(=O)c1ccsc1)C2 | -5.53
Cc1noc(C)c1C(=O)N1CC[C@H]2C[C@@H](c3ccncn3)O[C@@H]2C1 | -5.05
Cc1noc(C)c1S(=O)(=O)NC(=O)COc1cccc(C(C)C)c1 | -2.21
CCc1nc(C2NC3(CCCC3)C(=O)N2CC2CC2)cs1 (stereo unspecified) | 22.7
Clc1ccc2oc(C3CCN(Cc4nc(C5CC5)no4)CC3)nc2c1 | -16.3
Cc1nonc1CN(C)CC1(O)CCCN(CCC2CCCCC2)C1=O (stereo unspecified) | 2.77

Compound | cytotoxicity at 70.5 h [%]
CCn1cc(S(=O)(=O)NCC(OC)c2cccc(Cl)c2)cn1 (stereo unspecified) | -6.64
Cc1ccc(C(=O)N2CCN3C[C@H](Oc4cncnc4)C[C@H]3C2)cn1 | -0.158
c1ccc(COC2CCN(Cc3cc4n(n3)CCCNC4)CC2)nc1 | -18
COc1ccc(-c2cc(CC3(NCc4ccc(C)o4)COC3)no2)cc1 | 6.13
COc1ccc2c(ccn2CC(=O)N2CCCC2Cn2cccn2)c1 (stereo unspecified) | 3.03
COc1ccc(Cl)cc1C(=O)NCCNc1cnccn1 | -3.57
CN1CC[C@]2(CN(CC3CCOCC3)C[C@H]2c2ccccc2)C1=O | -7.31
Cc1ccc(-c2nnc(CN3CCOC(Cn4cncn4)C3)o2)cc1 (stereo unspecified) | -5.3
O=C([C@H]1COC[C@H]2CN(C3CCCC3)C[C@H]21)N1CCOCC1 | -9.13
Cc1nc(N2CCOCC2)sc1C(=O)NCC(C)(C)N1CCCCC1 | -2
Cc1nc(C)n(C2CCCN(C(=O)CCOc3cccc(F)c3)C2)n1 (stereo unspecified) | -6.19
C=Cc1cccc(CN2CCCn3nc(CNS(C)(=O)=O)cc3C2)c1 | -3.84
Cc1csc2nc3n(c(=O)c12)CCN(C(=O)c1ccncc1)CC3 | -7.78
Cc1cc(N(C)C)nc(N2CCCC2c2cc(C)on2)n1 (stereo unspecified) | -1.73
COc1nn(C)c2c1CCCN(C(=O)c1cnccn1)C2 | 1.47
COCCOc1ccc(NC(=O)C2CCCN(C(N)=O)C2)cn1 (stereo unspecified) | 4.12
CC(C)NC(=O)CN(C)C1CCN(c2cnc3ccccc3n2)CC1 | 20.5
CCOc1ccc(-n2nc(C)c(CC(C)=O)c2C)cc1C(N)=O | -2.04
